“Also recorded” adds a separate entry of the source. Where two headings read alike, the source gives them in different places.
Assays:
[1] = Acid-base titration of aqueous photoacid with absorption and steady-state photoluminescence detection (Henderson-Hasselbalch / Stern-Volmer fits, OH− as quencher); conditions: for predicted pK*a pseudo (Equation 5): from bimolecular rate constant and excited-state lifetime; for bimolecular rate constant k+q,ss,OH−: steady-state data, forward direction of Reaction 1 with B=OH−(aq)
Excerpt: FIGS. 2A through 2C illustrate acid-base titration of an aqueous solution of NS—NH2 photoacid with absorption and photoluminescence detection in accordance with an embodiment.
where aOH− is the activity of OH^−(aq), K*b pseudo is an erroneous observed equilibrium constant for base dissociation and KSV,OH− is the Stern-Volmer quenching constant, which is strictly dimensionless but reported here in units of M^−1 to be consistent with its typical usage. Unlike the Henderson-Hasselbalch equation, the Stern-Volmer equation is also applicable to non-equilibrium processes.
and KSV,OH−=k+q,OH−τo,PAH*, where τ is the excited-state lifetime (s) of NS—NH2* in the absence (τo,PAH*) or presence (τPAH*) of OH^− quencher and k+q,OH− is the bimolecular rate constant (M^−1 s^−1) for quenching of NS—NH2* by OH^− (forward direction of Reaction 1 with B=OH^−(aq)).
Several embodiments use the steady-state ultraviolet-visible electronic absorption and photoluminescence spectroscopy for characterization. Equal amounts of aromatic amine photoacids are portioned into five separate 100 mL volumetric flasks. For the non-proton-accepting quencher experiments, the five flasks are filled to the volumetric marker with aqueous solutions of 1 M HCl, 1 M KOH, 2 M KOH, 3 M KOH, and 4 M KOH. The aqueous 1 M KOH solution is titrated with the aqueous 1 M HCl solution to reach the desired pH values from 14 to 6, and the H^+ activities are measured using a pH meter (pH/Ion 510). […] Electronic absorption spectra and photoluminescence spectra are acquired using absorbance and fluorescence spectrometer(s), using a square-bottom quartz cuvette (1 cm path length) at room temperature. Electronic absorption spectra are baselined on a spectrum of deionized water and were corrected for scattering of light. Photoluminescence spectra are recorded by exciting with 310 nm light, slit widths for the excitation and emission monochromators were set to 5 nm, and the PMT detector voltage is set to 600 V. Photoluminescence spectra are corrected for changes in solution refractive index, inner filter effects and the wavelength-dependent correction factor of the fluorimeter. For experiments that use non-OH^− proton-accepting quenchers, equal amounts of the quencher are added to the dry volumetric flask intended to form the acidic and basic aqueous photoacid solutions, to prevent changes in total quencher concentration during the titration, and titrations are performed similarly to those in the absence of added proton-accepting quenchers. Although the total quencher concentration is kept constant throughout the titration, the activity of the deprotonated quencher species varied as a function of solution pH according to Equation 3. Ionic strength is matched at the most alkaline pH values; however, it is experimentally difficult to maintain the same ionic strength throughout the titration. Normalized photoluminescence intensities as a function of solution pH are obtained by dividing the corrected photoluminescence intensities at the wavelength of maximum photoluminescence to the maximum corrected photoluminescence intensity at the same wavelength.

[2] = Ground-state and excited-state acidities of aromatic-amine-based photoacids (Table 1); conditions: pKa* pseudo minus pKa
Excerpt: Because the Henderson-Hasselbalch equation is derived for proton-transfer reactions at thermal and chemical equilibrium, it is agnostic to whether the ESPT acceptor species are H2O(l) or OH^−(aq), but it does require that the system has reached excited-state quasi-equilibrium.
Observed rate constants can be determined for excited-state proton transfer from weak photoacids to a series of proton-accepting quenchers.

[3] = cited from earlier work; for pKa* pseudo: excited state, photoluminescence titration, Henderson-Hasselbalch analysis; for pKa: ground state
[4] = Stability of dye fluorescence near an operating gas diffusion electrode

| Molecule | ΔpKa pseudo [2] | pKa* pseudo [3] | pKa [3] | further results |
| --- | --- | --- | --- | --- |
| NCCNc1cccc2c(S(=O)(=O)[O-])cccc12.[Na+] [EDANS, 5-((2-aminoethyl)amino)naphthalene-1-sulfonic acid sodium salt] |  |  |  | pKa ([1]; aqueous solution, pKa of the aliphatic primary amine, multi-quencher Stern-Volmer fit): 10.06 ± 0.02; unimolecular rate constant ([1]; excited-state deprotonation by the aliphatic primary amine): (0.95±0.01)×10^8 s^−1; KSV,NH2 ([1]; excited-state deprotonation by the aliphatic primary amine (intramolecular)): 1.20 ± 0.02 M⁻¹; predicted pK*a pseudo (Equation 5) [1]: 12.53±0.06; bimolecular rate constant k+q,ss,OH− [1]: (23±1)×10^8 M^−1 s^−1; KSV,ss,OH− ([1]; steady-state photoluminescence, non-linear Stern-Volmer fit, OH−(aq) quencher): 30 ± 1 M⁻¹ |
| Nc1ccc2ccccc2c1 [2-naphthylamine] | −3.2 | 11.75 | 14.95 |  |
| O=C(O)c1cccc2[nH]ccc12 [indole-4-carboxylic acid] | −4.2 | 12.2 | 16.4 |  |
| Nc1ccc2c(c1)Cc1ccccc1-2 [2-aminofluorene] |  | 13.0 |  |  |
| O=C(O)c1cc2ccccc2[nH]1 [indole-2-carboxylic acid] | −4.2 | 12.9 | 17.1 |  |
| Nc1cc2ccccc2c2ccccc12 [9-phenanthrylamine] | < −1.82 | 12.18 | >14 |  |
| Nc1cccc(-c2ccccc2)c1 [3-aminobiphenyl] | < −3.0 | 12.0 | >15.0 |  |
| Nc1cc2ccccc2cc1C(=O)O [2-amino-3-naphthoic acid] | < 3.2 | 12.8 | >16 |  |
| Nc1cccc2c1C(=O)c1cccc(N)c1C2=O [1,5-diaminoanthraquinone] | < −1.7 | 12.3 | >14 |  |
| COc1cccc(N)c1 [m-anisidine] |  | 13.7 | >16 |  |
| Nc1ccc(-c2ccccc2)cc1 [4-aminobiphenyl] | < −1.25 | 14.25 | >15.5 |  |
| O=S(=O)([O-])c1cccc2cccc(Nc3ccccc3)c12.[Na+] [sodium 8-anilinonaphthalene-1-sulfonate, 8-anilinonaphthalene-1-sulfonic acid sodium salt] |  |  |  | predicted pK*a pseudo (Equation 5) [1]: 13.92±0.04; bimolecular rate constant k+q,ss,OH− [1]: (48±4)×10^8 M^−1 s^−1; KSV,ss,OH− (linearized Stern-Volmer) ([1]; steady-state photoluminescence, traditional linearized Stern-Volmer fit, OH−(aq) quencher): 1.2 ± 0.1 M⁻¹ |
| COc1n[nH]c2ccccc12 [3-methoxyindazole] | −2.3 | 11.7 | 14.0 |  |
| Nc1ccc2[nH]ccc2c1 [5-aminoindole] | −2.1 | 14 | 16.1 |  |
| c1ccc(-c2cc(-c3ccccc3)[nH]n2)cc1 [3,5-diphenylpyrazole] | −0.3 | 12.64 | 12.94 |  |
| Nc1ccc2c(c1)Cc1cc(N)ccc1-2 [2,7-diaminofluorene] | < −2.1 | 13.9 | >16 |  |
| Nc1cc(S(=O)(=O)[O-])c2ccc3c(S(=O)(=O)[O-])cc(S(=O)(=O)[O-])c4ccc1c2c43.[Na+].[Na+].[Na+] [APTS, 8-aminopyrene-1,3,6-trisulfonic acid trisodium salt] |  |  |  | pKa [1]: > 14; bimolecular rate constant k+q,ss,OH− [1]: (2.992±0.004)×10^9 M^−1 s^−1; pK*a pseudo (Henderson-Hasselbalch fit) ([1]; steady-state photoluminescence titration, global fit of two trials): 12.83±0.01; colour of stock solution after exposure ([4]; 10 mM stock solution exposed to −100 mA/cm^2 for 30 minutes): from bright green to brown; photoluminescence intensity during GDE operation ([4]; high current densities (magnitudes >80 mA/cm^2), trisodium salt): degrades and slowly loses its fluorescence; also recorded: decrease in photoluminescence intensity; steady-state photoluminescence spectrum versus dissolved inorganic carbon ([4]; increasing concentration of dissolved inorganic carbon): minimal change in intensity; calibration curve after degradation versus fresh solutions ([4]; stock solution exposed to −100 mA/cm^2 for 5 minutes): nearly identical; degradation, pH 7.1 versus pH 3 solution ([4]; with and without light): degradation effect is more pronounced for the pH 3 solution |

| Molecule | ΔpKa pseudo [2] | pKa* pseudo [3] | pKa [3] | further results |
| --- | --- | --- | --- | --- |
| Nc1ccc(Oc2ccc(N)cc2)cc1 [bis(4-aminophenyl)ether] |  | 11.2 |  |  |
| Nc1cc2c3ccccc3ccc2c2ccccc12 [6-aminochrysene] | < −1.4 | 12.6 | >14 |  |
| Nc1cc2ccccc2cc1N [2,3-diaminonaphthalene] | < −3.1 | 12.9 | >16 |  |
| c1ccc2c(c1)[nH]c1ccccc12 [carbazole] | −9.2 | 11.9 |  |  |
| CNc1ccccc1-c1nc2ccccc2n1C [2-(2′-N-methyl-aminophenyl)-N-methylbenzimidazole] |  | 12.2 |  |  |
| O=C(O)c1ccc2[nH]ccc2c1 [indole-5-carboxylic acid] | −4.6 | 12.3 | 16.9 |  |
| Nc1cnc2ccccc2c1 [3-aminoquinoline] |  | 12.1 |  |  |
| Nc1ccc(Nc2ccccc2)cc1 [4-aminodiphenylamine] | < −4.8 | 11.2 | >16.0 |  |
| COc1ccc(N)cc1 [p-anisidine] | < −2.7 | 13.3 | >16 |  |
| 2-aminonaphthalene-6-sulfonate |  | 11.86 |  |  |
| O=C(O)c1c[nH]c2ccccc12 [indole-3-carboxylic acid] | −2.5 | 13.1 | 15.6 |  |
| COC(=O)c1ccc(N)nc1 [methyl-6-aminonicotinate] |  | 11.1 |  |  |
| Nc1ccccc1-c1ccccc1 [2-aminobiphenyl] | < −2.9 | 12.1 | >15.0 |  |
| Nc1ccc2c(c1)C(=O)c1ccc(N)cc1C2=O [2,6-diaminoanthraquinone] | < −1.4 | 14.2 | >15.6 |  |
| Nc1ccc(C(=O)O)cn1 [6-aminonicotinic acid] |  | 14.2 |  |  |
| Nc1ccc(Nc2ccc(N)cc2)cc1 [4,4′-diaminodiphenylamine] | < −0.7 | 13.5 | >14.2 |  |
